Patent publication US5081253A, “Imidazo(4,5-C)pyridines as antiosteoporotic agents” (American Home Products Corporation, priority 1990, dated 1992)

Columns and labels:
[1] = system: Rat Limb Bones (PTH induced bone resorption); assay: Bone Resorption Assay: 45Ca Release from Rat Limb Bones (PTH Induced); assay type: cell-based, rat (Sprague-Dawley CD)
Protocol: The purpose of this assay is to identify compounds that inhibit basal or stimulated bone resorption in culture.
The ability of 2-substituted-imidazo[4,5-c]pyridines to modify the process of bone resorption was evaluated essentially as described by L.G. Raisz, Bone resorption in tissue culture. Factors influencing the response to parathyroid hormone.
Timed pregnant Sprague-Dawley CD® rats (Charles River) are administered 100 μCi ^45 CaCl2 (NEN calcium -45 NEZ-013) in 100 μL of 0.9% saline, subcutaneously, on day 18 of gestation. The rats are sacrificed the following day by CO2 asphyxiation. The fetuses are removed and the right forelimbs excised and placed in a Petri dish containing ice cold explant medium consisting of modified BGJb -Fitton Jackson media (custom formulation, Gibco No. 78-0088) adjusted to pH 7.3 to which 10 mM TES is added. […] Under a dissecting microscope, the bones are gently cleaned of adherent tissue and the cartilaginous ends removed. Incubation and drug treatment. […] The preincubation medium is brought to 37° C. prior to transfer of bones. The preincubation medium consists of the modified BGJb medium (with salts and glucose as above), pH 7.3, containing 29 mM NaHCO3. […] For compounds that require nonaqueous solvents, dilutions are made from the appropriate stock solution with medium. In these instances, basal and bone resorption stimulated controls exposed to an equivalent concentration of the vehicle are included. […] The right ulna and radius from each fetus are used. Both bones are subjected to the same treatment and each treatment group consists of bones from 4 or more fetuses. Treatments are randomly assigned using a preclinical statistics program (PS-ALLOC). After a 48 hour incubation at 37° C. in 5% CO2, the bones are removed from the medium and extracted in 0.5 mL of 0.1N HCl for 1 or more days. Duplicate 150 μL aliquots of the incubation medium and the bone extract are analyzed for ^45 Ca radioactivity in 5 mL of liquid scintillation cocktail.
The percentage of bone ^45 Ca released into the medium is determined as follows: [formula] […]

[2] = system: osteopenia induced by denervation of the sciatic nerve in rats; assay: Denervation Induced Osteopenia in Rats; assay type: in vivo, rat (female Sprague Dawley CD)
Description: The purpose of this assay is to evaluate the effect, in rats, of agents on the reduction in bone mass (osteopenia) induced by immobilization resulting from surgical severance (denervation) of the sciatic nerve.
The animals are housed in plastic cages (4 or 5 rats/cage) with food (rat purina 500 chow) and water ad libitum; 14/10 day/night cycle.
After one week of in-house acclimatization, the animals are randomly divided into groups of 6 to 10 rats/group. Each rat is weighed, anesthetized with an intraperitoneal administration of 100 mg/kg ketamine (Bristol Laboratories, Syracuse, N.Y.) and 0.75 mg/kg Acepromazine (Aveco, Ft. Dodge, Iowa). The left hind limb is shaved and denervated by making a lateral incision parallel to the femur and by surgically removing half of a centimeter of the sciatic nerve adjacent to caudofemoralis and adductor brevis muscles. The incision is closed with wound clips. After surgery, the rats are housed in cages with absorbent bedding to minimize additional trauma to the immobilized limb. A 24 hour post-surgery recovery period is allowed before the initiation of the drug treatment.
The concentration of the drug stock is calculated to be delivered in a volume of 0.1 mL/100 gram body weight. The drug solution or a uniform suspension is prepared in 1% Tween 80 in normal saline. The drugs are administered via oral or parenteral routes daily (five times a week) for four weeks.
A sequential triple labeling of mineralized tissue is employed to determine the osseous changes (especially the bone formation) and the mineralization rates. Each animal is administered 90 mg/kg Xylenol orange (Fisher Scientific Company), S.C., 15 mg/kg Calcein (Sigma Chemical Company), S.C. and 15 mg/kg Demeclocycline (Sigma Chemical Company), i.p., approximately 21 days, 10 days and 2 days prior to the termination of the study, respectively.
At the end of the fourth week, each rat is weighed, anesthetized with an intraperitoneal administration of 100 mg/kg ketamine with 0.75 mg/kg Acepromazine and approximately 4 mL of blood collected via cardiac puncture. The anesthetized rats are euthanized by exposure to carbon dioxide. The femora and tibiae from both limbs are dissected free of soft tissue. (i) Femora are ashed at ~1100° C. for 16 hours using a muffle furnace. --(ii) Proximal tibia are fixed, dehydrated and embedded undecalcified in a methyl methacrylate-glycol methacrylate mixture. Longitudinal tissue sections (10 microns) are prepared on a Polycut S microtome (Reichert). Staining is performed on free-floating sections using a modified Goldner's stain, which are then mounted and coverslipped.
Cancellous bone content in the proximal tibia is quantified (as two dimensional bone mineral area [B.Ar]) with an image analysis processing device (software developed by Drexel University).
The areas of the tibia selected for cancellous bone content evaluation are the primary and secondary spongiosa. To select and standardize this area for evaluation, the epiphyseal growth plate-metaphyseal junction is oriented parallel to the abscissa of the digitizing screen. Bone elements 1.7 mm (secondary spongiosa) and 0.2 mm (primary spongiosa) from the growth plate and equidistant from the flanking cortical elements are then quantified as described above. The total area evaluated is 2.30 mm wide and 1.45 mm deep, constituting a 3.34 mm^2 area.
Body weight, femur mass (dried or ashed) and trabecular (cancellous) bone mineral area (B.Ar) are determined.
The difference (both absolute and percent change) in femur mass and bone mineral area between intact (control) and denervated limbs of a treatment group are compared with that for the vehicle group using a one-way analysis of variance with Dunnett's test, or other multiple comparison methods.
The results are reported in Table I and II under the heading In Vivo.

[3] = Table II, 25 mg/kg, route not given
[4] = Table I, concentration not given

Compound	Inhibition of Bone Resorption, PTH Induced ([1]; Table I, 10 μg/mL)	Inhibition of Bone Resorption, In Vivo [2, 3]	Inhibition of Bone Resorption, PTH Induced ([1]; Table II, 10 μg/mL)	Inhibition of Bone Resorption, In Vivo ([2]; po, 672 h)	also measured
CCOc1cccc(C[S+]([O-])c2nc3cnccc3[nH]2)c1 (stereo not drawn) [Example 53, 2-[[(3-Ethoxyphenyl)methyl]sulfinyl]-1H-imidazo[4,5-c]pyridine One Third Hydrate]	Active	–	–	–	–
O=[N+]([O-])c1cccc(CSc2nc3cnccc3[nH]2)c1 [Example 48, 2-[[(3-Nitrophenyl)methyl]thio]-1H-imidazo[4,5-c]pyridine]	–	Inactive	–	–	–
COc1ccccc1CSc1nc2cnccc2[nH]1 [Example 42, 2-[[(2-Methoxyphenyl)methyl]thio]-1H-imidazo[4,5-c]pyridine]	–	–	Active	–	–
Fc1ccccc1CSc1nc2cnccc2[nH]1 [Example 40, 2-[[(2-Fluorophenyl)methyl]thio]-1H-imidazo[4,5-c]pyridine]	–	Inactive	Active	–	–
c1ccc(Oc2cccc(CSc3nc4cnccc4[nH]3)c2)cc1 [Example 46, 2-[[(3-Phenoxyphenyl)methyl]thio]-1H-imidazo[4,5-c]pyridine]	–	Inactive	Inactive	–	–
O=[N+]([O-])c1cccc(C[S+]([O-])c2nc3cnccc3[nH]2)c1 (stereo not drawn) [Example 49, 2-[[(3-Nitrophenyl)methyl]sulfinyl]-1H-imidazo[4,5-c]pyridine 0.15 Dimethylformamide]	–	–	–	Inactive	–
COc1cccc(C[S+]([O-])c2nc3cnccc3[nH]2)c1 (single isomer, unassigned) [Example 58, [R-(-)]-2-[[(3-Methoxyphenyl)methyl]sulfinyl]-1H-imidazo[4,5-c]pyridine One Quarter Hydrate]	–	–	–	–	Inhibition of Bone Resorption, PTH Induced [1, 4]: Active
COc1cc(C[S+]([O-])c2nc3cnccc3[nH]2)cc(OC)c1OC (stereo not drawn) [Example 29, 2-[[(3,4,5-Trimethoxyphenyl)methyl]sulfinyl]-1H-imidazo[4,5-c]pyridine-One Third Hydrate]	–	–	–	Inactive	Inhibition of Bone Resorption, PTH Induced [1, 4]: Inactive
COc1ccc(CSc2nc3cnccc3[nH]2)cc1C [Example 50, 2-[[(4-Methoxy-3-methylphenyl)methyl]thio]-1H-imidazo[4,5-c]pyridine]	–	Inactive	–	–	–
COc1cccc(CCSc2nc3cnccc3[nH]2)c1 [Example 16, 2-[[(3-Methoxyphenyl)ethyl]thio]-1H-imidazo[4,5-c]pyridine]	–	–	Inactive	–	Inhibition of Bone Resorption, In Vivo ([2]; Table II, 25 mg/kg, p.o.): Inactive
CCOc1cccc(CSc2nc3cnccc3[nH]2)c1 [Example 52, 2-[[(3-Ethoxyphenyl)methyl]thio]-1H-imidazo[4,5-c]pyridine]	–	Inactive	Inactive	–	–
[O-][S+](Cc1cccc(Oc2ccccc2)c1)c1nc2cnccc2[nH]1 (stereo not drawn) [Example 47, 2-[[(3-Phenoxyphenyl)methyl]sulfinyl]-1H-imidazo[4,5-c]pyridine]	Active	–	–	Inactive	–
COc1cc(C[S+]([O-])c2nc3cnccc3[nH]2)cc(OC)c1 (stereo not drawn) [Example 45, 2-[[(3,5-Dimethoxyphenyl)methyl]sulfinyl]-1H-imidazo[4,5-c]pyridine]	Active	–	–	Inactive	–
2-[[(3,5-Dimethoxyphenyl)methyl]thio]-1H-imidazo[4,5-c]pyridine [Example 44]	–	Inactive	Active	–	–
N#Cc1ccccc1C[S+]([O-])c1nc2cnccc2[nH]1 (stereo not drawn) [Example 39, 2-[[(1H-Imidazo[4,5-c]pyridin-2-yl)sulfinyl]methyl]benzonitrile]	Active	–	–	Inactive	–
N#Cc1ccccc1CSc1nc2cnccc2[nH]1 [Example 38, 2-[(1H-Imidazo[4,5-c]pyridin-2-ylthio)methyl]benzonitrile]	–	Inactive	Inactive	–	–
COc1cccc(C[S+]([O-])c2nc3cnccc3[nH]2)c1 (single isomer, unassigned) [Example 57]	–	–	–	–	Inhibition of Bone Resorption, PTH Induced [1, 4]: Active
[O-][S+](Cc1ccccc1F)c1nc2cnccc2[nH]1 (stereo not drawn) [Example 41, 2-[[(2-Fluorophenyl)methyl]sulfinyl]-1H-imidazo[4,5-c]pyridine Quarter Hydrate]	Active	–	–	Inactive	–
COc1ccccc1C[S+]([O-])c1nc2cnccc2[nH]1 (stereo not drawn) [Example 43, 2-[[(2-Methoxyphenyl)methyl]sulfinyl]-1H-imidazo[4,5-c]pyridine]	Active	–	–	–	–
Clc1cc2c(cc1CSc1nc3cnccc3[nH]1)OCO2 [Example 24, 2-[[(6-Chloro-1,3-benzodioxol-5-yl)methyl]thio]-1H-imidazo[4,5-c]pyridine]	–	–	Active	–	–
COc1ccc(C[S+]([O-])c2nc3cnccc3[nH]2)cc1 (stereo not drawn) [Example 27, 2-[[(4-Methoxyphenyl)methyl]sulfinyl]-1H-imidazo[4,5-c]-pyridine-One Third Hydrate]	Active	–	–	Inactive	–
COc1ccc(C[S+]([O-])c2nc3cnccc3[nH]2)cc1C (stereo not drawn) [Example 51, 2-[[(4-Methoxy-3-methylphenyl)methyl]sulfinyl]-1H-imidazo[4,5-c]pyridine]	–	–	–	Inactive	–
Br.Br.Oc1cccc(CSc2nc3cnccc3[nH]2)c1 [Example 54, 3-[[(1H-Imidazo[4,5-c]pyridin-2-yl)thio]methyl]phenol Dihydrobromide]	–	Inactive	Inactive	–	–
